Results as given in US11059855B2, “Antimicrobial peptides and methods of making and using same” (priority 2017, dated 2021).
Where two headings read alike, the source gives them in different places.

Legend:
[1] = 3-kDa dextran macromolecule release assay, POPC; assay type: biochemical; conditions: P:L = 1:1000, pH 7 phosphate buffer
Protocol: Several different size dextrans were prepared and labelled with both TAMRA and biotin. Conjugated dextran was entrapped in POPC LUVs as described above. External dextran was removed by incubation with immobilized streptavidin. Streptavidin labelled with an Alexa-488 fluorophore was added during the leakage experiment with the peptide as previous described.^5 The sample was then incubated for 3 hr before measuring Alexa-488 fluorescence. A control without added peptide served as the 0% leakage signal and addition of 0.05% vol. Triton X-100 was used to determine 100% leakage.

Hemolysis assay = assay type: cell-based, human; conditions: human
Protocol: (§1) Fresh human red blood cells were obtained from Interstate Blood Bank, Inc., and thoroughly washed in PBS until the supernatant was clear. hRBC concentration was determined using a standard hemocytometer. In hemolysis assays serial dilutions of peptide were prepared, followed by the addition of 2×10^8 hRBC/mL. After incubation for 1 hr at 37° C. the cells were centrifuged and the released hemoglobin was measured by optical absorbance of the heme group (410 nm). Negative control was buffer only (0% lysis), and the positive control was 20 μM melittin and distilled water (100% lysis). The samples were done in triplicate.

[2] = Circular dichroism secondary structure (Dichroweb), with POPC; assay type: physicochemical
Protocol: (§2) Dichroweb software analyzes the secondary structure of LDKA peptides from circular dichroism spectroscope. The table presents the percentage of each helix and strand structure at different temperature. The data are analyzed using CONTIN-LL method and Reference Set 4 (Optimised for 190-240 nm).
(§3) Peptide solutions (peptide concentration is 50 μM) were titrated with POPC and POPG LUVs (50, 100, 250, 500, 1000 μM) and the corresponding changes CD spectra collected. Analysis of these spectra using CD tools and Dichroweb provides an ensemble average of the changes in secondary structure in the presence of POPC and POPG LUVs (dichroweb.cryst.bbk.ac.uk), which gives a direct measure of the binding free energies for each peptide.

[3] = Circular dichroism secondary structure (Dichroweb), with POPG; assay type: physicochemical
Protocol: as §2, §3

[4] = Membrane selectivity from high-throughput dye leakage screen; assay type: biochemical; conditions: PC = POPC, PG = POPG
Excerpt: (§4) This detects and quantifies the release of a small fluorescent dye (ANTS/DPX; MW=˜400 Da) encapsulated in LUVs after addition of library peptides. Neutral POPC LUVs serve as a simple model for mammalian membranes, while charged POPG LUVs mimic bacterial membranes enriched in anionic lipids.

[5] = Pore-size characterization by 3-kDa dextran release; assay type: biochemical; conditions: ‡Large pore for PG only
Excerpt: Eight LDKA peptides with different lipid selectivity and pore sizes were selected from the high-throughput screen and sequenced. […] The most common mutation is L to A, occurred 13 times and in 7 out of the 8 peptides, followed by A to L, which occurred 6 times in 5 peptides, L to D which occurred 3 times in 3 peptides, and L to P that occurred once. Lysine (K) is not favorable to be shown at the position 6, 8, 10, 12, and 13, which is the non-polar face of the helical structure. […] More specifically, the analogs only induce leakage from anionic POPG vesicles have 4-5 leucines, which is less than the analogs that can porate both POPC and POPG vesicles and have 6-7 leucines in their sequences.

[6] = ANTS/DPX leakage assay, POPC; assay type: biochemical; conditions: P:L = 1:1000, pH 7 phosphate buffer
Protocol: (§5) 5 mM ANTS and 12.5 mM DPX were entrapped in 0.1 μm diameter extruded vesicles with lipids. Gel filtration chromatography of Sephadex G-100 (GE Healthcare Life Sciences Inc.) was used to remove external free ANTS/DPX from LUVs with entrapped contents. […] Leakage was measured after 3 hr incubation. 10% Triton was used as the positive control to measure the maximum leakage of the vesicle. Fluorescence emission spectra were recorded using excitation wavelength (Ex: 350 nm) and emission wavelength (Em: 510 nm) for ANTS/DPX using Synergy H1 Hybrid Multi-Mode Reader.
as §4

[7] = ANTS/DPX leakage assay, POPG; assay type: biochemical; conditions: P:L = 1:1000, pH 7 phosphate buffer
Protocol: as §5, §4

[8] = Circular dichroism secondary structure (Dichroweb), peptide only; assay type: physicochemical; conditions: 20 °C
Protocol: as §2, §3

[9] = provided by the distributor, GenScript; cited from earlier work
Escherichia coli biofilm = test: Activity against biofilm, E. coli; assay type: cell-based; conditions: 67-150 μM peptide, 3 hr treatment
Protocol: (§6) Selected analogues were tested with each (13A). Escherichia coli biofilm, (13B). Staphylococcus aureus biofilm, and (13C) Pseudomonas aeruginosa biofilm.
(§7) However, most of the LDKA analogues fail to treat S. aureus and P. aeruginosa biofilms. Only K7H and 7F3 are capable to reduce S. aureus biofilms by ˜50% with 100 μM peptide concentration, and none of the analogues work against P. aeruginosa biofilms (FIGS. 13a-13c).

[10] = test system: methicillin-resistant Staphylococcus aureus (MRSA); assay type: cell-based; conditions: 75 μM maximum tested; NDA = not determinable
[11] = test system: ciprofloxacin-resistant E. coli
Protocol: “N.D.” means “not determined”.
Ceftazidime is active on the bacteria's cell wall and interferes with bacterial cell wall formation.^38,39 Ciprofloxacin is able to inhibit DNA gyrase, type II topoisomerase, and topoisomerase IV to separate bacterial DNA and inhibits cell division.^40 Streptomycin and gentamicin are antibiotics that can interrupt and inhibit protein synthesis.^41,42 E. coli strain ATCC 25922 cultures were grown in the presence of each of these antibiotics at elevated concentration for 10 generations.

P. aeruginosa = test: Bacterial minimum inhibitory concentration (MIC), P. aeruginosa; assay type: cell-based, Pseudomonas aeruginosa; conditions: 75 μM maximum tested; NDA = not determinable
Protocol: (§8) Escherichia colt strain ATCC 25922, Staphylococcus aureus strain ATCC 25923, and Pseudomonas aeruginosa strain ATCC PAO1 were used in this study. Overnight cultures were subcultured to log phase (OD600=0.3-0.6) after which cell counts were determined by measuring the OD600 (OD600 1.0=1.5×10^8 CFU/mL for S. aureus, 5×10^8 CFU/mL for E. colt, and 2.04×10^8 CFU/mL for P. aeruginosa). Bacteria in minimal media mere added to serially diluted peptides and incubated for 3 hr, followed by the addition of full growth media. After overnight incubation, the optical density of the wells was recorded on a plate reader to determine whether they were sterilized (OD<0.08) or were at stationary phase growth (OD600>0.5). Intermediate values, which were rare, were considered positive for growth. Average minimum sterilizing concentrations were calculated from the lowest peptide concentration that sterilized the bacteria in each serial dilution. The samples were done in sextuplet.

[12] = test system: Staphylococcus aureus biofilm; test: Activity against biofilm, S. aureus; assay type: cell-based; conditions: 100 μM peptide concentration, 3 hr treatment
Protocol: as §6, §7

S. aureus = test: Bacterial minimum inhibitory concentration (MIC), S. aureus; assay type: cell-based, Staphylococcus aureus; conditions: 75 μM maximum tested; NDA = not determinable
Protocol: as §8

human red blood cells = test: Hemolysis assay; assay type: cell-based
Protocol: as §1

[13] = 3-kDa dextran macromolecule release assay, POPG; assay type: biochemical; conditions: P:L = 1:1000, pH 7 phosphate buffer

Row | Substance | Peptide-POPC, Helix ([2]; 20 °C) [%] | Peptide-POPC, Strand ([2]; 20 °C) [%] | Peptide-POPC, Helix ([2]; 45 °C) [%] | Peptide-POPC, Strand ([2]; 45 °C) [%] | Peptide-POPC, Helix ([2]; 70 °C) [%] | Peptide-POPC, Strand ([2]; 70 °C) [%] | Peptide-POPC, Helix ([2]; 95 °C) [%] | Peptide-POPC, Strand ([2]; 95 °C) [%] | Peptide-POPG, Helix ([3]; 20 °C) [%] | Peptide-POPG, Strand ([3]; 20 °C) [%] | Peptide-POPG, Helix ([3]; 45 °C) [%] | Peptide-POPG, Strand ([3]; 45 °C) [%] | Peptide-POPG, Helix ([3]; 70 °C) [%] | Peptide-POPG, Strand ([3]; 70 °C) [%] | Peptide-POPG, Helix ([3]; 95 °C) [%] | Peptide-POPG, Strand ([3]; 95 °C) [%] | Peptide-only, Helix [8] [%] | Peptide-only, Strand [8] [%] | Solubility, DMSO [9] [µg/mL] | Solubility, DPBS pH 7.1 [9] [mg/mL] | further results
1 | H-GLDDLLKALLKAAGW-NH2 [Peptide 4H9] | 82 | 0 | 77 | 0 | 66 | 4 | 47 | 11 | 93 | 0 | 91 | 0 | 83 | 0 | 73 | 1 | 63 | 2 | 15000 | 10 | 3-kDa Dextran release, POPC [1]: -4%; HC50 at 1 hr (Hemolysis assay; peptide concentration lysing 50% of red blood cells, estimated using polynomial regression, read-out: Hemolysis Assay LC50): 56.6 µM; Membrane selectivity (POPC vs POPG vesicles) [4]: PC > PG; Pore size [5]: Small; ANTS/DPX release, POPC [6]: 110%; ANTS/DPX release, POPG [7]: 43%; Solubility, Ultrapure Water [9]: 5000 µg/mL; Elimination of E. coli biofilm (Escherichia coli biofilm): ~50%; Minimum Inhibitory Concentration, MRSA [10]: NDA; MIC, ciprofloxacin-resistant E. coli [11]: completely fail; Minimum Inhibitory Concentration, P. aeruginosa (P. aeruginosa): NDA
2 | H-GLLDLLHLLLKAAGW-NH2 [Peptide K7H] | 65 | 5 | 80 | 1 | 80 | 2 | 72 | 3 | 53 | 11 | 59 | 8 | 77 | 2 | 77 | 2 | 62 | 4 | 15000 | <0.1 | Reduction of S. aureus biofilms [12]: ~50%; CC50 at 1 hr (Hemolysis assay): 2300 nM; Minimum Inhibitory Concentration, S. aureus (S. aureus): 3 µM; Solubility, Ultrapure Water [9]: 1000 µg/mL; Minimum Inhibitory Concentration, P. aeruginosa (P. aeruginosa): does not inhibit and NDA
3 | H-GLLDLLKLLLKLAGW-NH2 [Peptide 28H6] | 58 | 10 | 64 | 6 | 68 | 6 | 65 | 3 | 18 | 32 | 23 | 29 | 27 | 25 | 55 | 7 | 63 | 4 | 15000 | <0.1 | 3-kDa Dextran release, POPC [1]: 38%; HC50 at 1 hr (Hemolysis assay): 1.2 µM; Hemolytic activity (in words) (human red blood cells): significantly haemolytic; Membrane selectivity (POPC vs POPG vesicles) [4]: Non-selective; 3-kDa Dextran release, POPG [13]: 67%; Minimum Inhibitory Concentration, S. aureus (S. aureus): NDA; Pore size [5]: Large; ANTS/DPX release, POPC [6]: 99%; ANTS/DPX release, POPG [7]: 105%; Solubility, Ultrapure Water [9]: 500 µg/mL; Minimum Inhibitory Concentration, MRSA [10]: NDA; Minimum Inhibitory Concentration, P. aeruginosa (P. aeruginosa): NDA
